In patent US20220251109A1, “OXAAZAQUINAZOLINE-7(8H)-KETONE COMPOUND, PREPARATION METHOD THEREFOR AND PHARMACEUTICAL APPLICATION THEREOF” (GENFLEET THERAPEUTICS (SHANGHAI) INC., priority 2019, published 2022) one finds IC50 data, which are given here for 14 compounds.

Broadly, the IC50 is the point on the concentration scale where inhibition reaches its midpoint.

Where two headings read alike, the source gives them in different places.

What all share (format): cell-based, human
The test system of assay [1] is NCI-H358 cells (Kras G12C mutation). Nature of the assay: Cell proliferation inhibition experiment, 3D model, CellTiter-Glo (NCI-H358). The following applies: NCI-H358, 3D sphere plate, 5 days, 2% FBS. How it is done: (§1) NCI-H358 was a human non-small cell lung cancer cell line with Kras G12C mutation, cultured in 10% FBS RPMI-1640 medium; A549 was a human lung adenocarcinoma cell line with Kras G12S mutation, cultured in 10% FBS F-12K medium. The cells in the logarithmic growth phase was taken, digested with trypsin EDTA, collected and counted, and H358 was adjusted to 1.8E4 cells/ml using 2% FBS RPMI-1640 medium, and A549 was adjusted to 8.9E3 cells/ml using 2% FBS F-12K medium; 800 (45 μl) H358 or 400 (45 μl) A549 cells were seeded in a 384-well sphere plate respectively, cultured overnight to establish a 3D cell model. DMSO was used to prepare 1000× compound 3.16-fold gradient concentration stock solution, and 2% FBS medium was used to dilute 100-fold to 10× compound stock solution. On the second day after cell seeding, 5 μl 10× compound stock solution was added to each cell culture well, the final concentration was 1×, and DMSO content was 0.1%. DMSO was used as the experimental control (control) and 2% FBS medium as the blank control (blank). After the compound and cells were added and cultured for 5 days, 25 μl CellTiter-Glo working solution was added to each well, mixed at 400 rpm and incubated for 30 minutes. After 30 minutes at room temperature, 40 μl of the mixture was transferred to a 384-well plate with a non-transparent white bottom, the luminescence chemiluminescence value was read, and the cells proliferation inhibition rate IR (%)=(RLU control-RLU compound)/(RLU control-RLU blank)×100% was calculated, Prism 6 four-parameter method was used to fit the compound's gradient dilution concentration and the corresponding cell proliferation inhibition rate, and the IC50 value was calculate.
For orientation: Cellular ATP, detected with luciferase, serves as a proxy for viable cell number.

In assay [2] the test system is A549 cells (Kras G12S mutation). Briefly: Cell proliferation inhibition experiment, 3D model, CellTiter-Glo (A549). Conditions: A549, 3D sphere plate, 5 days, 2% FBS. How it is done: as §1
The test system of assay [3] is MIA PaCa-2 cells (Kras G12C mutation). Briefly: Cell proliferation inhibition experiment, 3D model, CellTiter-Glo (MIA PaCa-2). Conditions: MIA PaCa-2, 3D sphere plate, 5 days, read-out: MIA-PaCa2 IC50. The procedure:
MIA PaCa2 was a human pancreatic cancer cell line with Kras G12C mutation, cultured in 10% FBS+2.5% Horse serum DMEM medium; A549 was a human lung adenocarcinoma cell line with Kras G12S mutation, cultured in 10% FBS F-12K medium. The cells in the logarithmic growth phase were taken, digested with enzyme EDTA, collected, counted and 200 MIA PaCa-2 or 400 A549 cells were seeded in a 384-well sphere plate respectively, cultured overnight to establish a 3D cell model. DMSO was used to prepare 1000× compound 3.16-fold gradient concentration stock solution, and medium was used to dilute 100-fold to 10× compound stock solution. On the second day after cell seeding, 10× compound stock solution was added to each cell culture well, the final concentration was 1×, and DMSO content was 0.1%. DMSO was used as an experimental control (control), medium as the blank control (blank). After the compound and cells were added and cultured for 5 days, 30 μl CellTiter-Glo working solution was added to each well, mixed and incubated for 30 minutes. After 30 minutes at room temperature, 40 μl of the mixture was transferred to a 384-well plate with a non-transparent white bottom, the luminescence chemiluminescence value was read, and the cells proliferation inhibition rate IR (%)=(RLU control-RLU compound)/(RLU control-RLU blank)×100% was calculated, XLFit four-parameter method was used to fit the compound's gradient dilution concentration and the corresponding cell proliferation inhibition rate, and the IC50 value was calculate.

Setting [4] is: Homo sapiens, MIA PaCa-2, 120 h.

Regarding `C=CC(=O)N1CCN2c3nc(=O)n(-c4c(C)ccnc4C(C)C)c4cc(-c5c(O)cccc5F)cc(c34)OC[C@@H]2C1` (atropisomer, axis not shown) [Compound Z15-2], the IC50 was 149 nM in assay [1], 29800 nM in assay [2] and 261 nM in assay [3].
Turning to `C=CC(=O)N1CCN2c3nc(=O)n(-c4c(C)ccnc4C(C)C)c4cc(-c5c(C)ccc6[nH]ncc56)c(Cl)c(c34)OC[C@@H]2C1` (atropisomer, axis not shown) [Compound Z26-2-2], the IC50 is 2 nM in assay [1], over 10000 nM in assay [2] and 3 nM in assay [3].
As for `C=CC(=O)N1CCN2c3nc(=O)n(-c4c(C)ccnc4C(C)C)c4cc(-c5c(C)ccc6[nH]ncc56)c(Cl)c(c34)OC[C@H]2C1` (atropisomer, axis not shown) [Compound Z30-2-2], the IC50 was 3 nM in assay [1], over 10000 nM in assay [2] and 4 nM in assay [3].
As for `C=CC(=O)N1CCN2c3nc(=O)n(-c4c(C)ccnc4C(C)C)c4cc(-c5c(O)cccc5F)cc(c34)OC[C@@H]2C1` (single isomer, unassigned) [Compound Z15-1], the figures for the IC50 in assay [1], in assay [2] and in assay [3] were 17 nM, 22200 nM and 20 nM, respectively.
Take `C=CC(=O)N1CCN2c3nc(=O)n(C4CC4)c4cc(-c5c(C)ccc6[nH]ncc56)c(Cl)c(c34)OC[C@@H]2C1` (single isomer, unassigned) [Compound Z17-2]: the IC50 in assay [1] (Homo sapiens, NCI-H358, 120 h) was 37 nM; in assay [2] (Homo sapiens, A549, 120 h), 12800 nM; in assay [3] (setting [4]), 33 nM.
As to `C=CC(=O)N1CCN2c3nc(=O)n(-c4c(C)ccnc4C(C)C)c4cc(-c5c(C)ccc6[nH]ncc56)cc(c34)OC[C@@H]2C1` (single isomer, unassigned) [Compound Z19-2], the IC50 in assay [1] is 25 nM; in assay [2], 12000 nM; in assay [3] (setting [4]), 24 nM.
As for `C=CC(=O)N1CCN2c3nc(=O)n(-c4ccccc4C(C)C)c4cc(-c5c(C)ccc6[nH]ncc56)c(Cl)c(c34)OC[C@@H]2C1` (single isomer, unassigned) [Compound Z20-1], the IC50 in assay [1] was found to be 10 nM; in assay [2], 12200 nM; in assay [3], 17 nM.
As to `C=CC(=O)N1CCN2c3nc(=O)n(-c4ccccc4C(C)C)c4cc(-c5c(C)ccc6[nH]ncc56)c(Cl)c(c34)OC[C@@H]2C1` (single isomer, unassigned) [Compound Z20-2], the IC50 in assay [1] stood at 46 nM; in assay [2], 5950 nM; in assay [3] it was 173 nM.
Consider `C=CC(=O)N1CCN2c3nc(=O)n(-c4ccccc4C(C)C)c4cc(-c5c(C)ccc6[nH]ncc56)c(Cl)c(c34)OC[C@@H]2C1` (single isomer, unassigned) [Compound Z20-3], for which the results for the half-inhibitory concentration (IC50) in assay [1], in assay [2] and in assay [3] were 0.6 nM, over 10000 nM and 0.5 nM, respectively.
For the compound `C=CC(=O)N1CCN2c3nc(=O)n(-c4ccccc4C(C)C)c4cc(-c5c(C)ccc6[nH]ncc56)c(Cl)c(c34)OC[C@@H]2C1` (single isomer, unassigned) [Compound Z20-4], the IC50 in assay [1] is 26 nM; in assay [2], 2670 nM; in assay [3], 51 nM.
Consider `C=CC(=O)N1CCN2c3nc(=O)n(-c4cccnc4C(C)C)c4cc(-c5c(C)ccc6[nH]ncc56)c(Cl)c(c34)OC[C@@H]2C1` [Compound Z39], for which the IC50 in assay [3] (setting [4]) was 444 nM.
In the case of `C=CC(=O)N1CCN2c3nc(=O)n(-c4c(C)ccnc4C(C)C)c4nc(-c5c(F)cccc5C(F)(F)F)c(Cl)c(c34)OC[C@@H]2C1` [Compound Z70], the IC50 is 42 nM in assay [1] (Homo sapiens, NCI-H358, 120 h) and over 10000 nM in assay [2] (Homo sapiens, A549, 120 h).
As to `C=CC(=O)N1CCN2c3nc(=O)n(-c4c(C)ccnc4C(C)C)c4nc(-c5cccnc5C)c(Cl)c(c34)OC[C@@H]2C1` [Compound Z78], the IC50 is 254 nM in assay [1] (Homo sapiens, NCI-H358, 120 h) and over 10000 nM in assay [2] (Homo sapiens, A549, 120 h).
Take `C=CC(C)N1CCN2c3nc(=O)n(-c4c(C)ccnc4C(C)C)c4nc(-c5cnccc5C)c(Cl)c(c34)OC[C@@H]2C1` (stereo partly shown) [Compound Z81]: the 50% inhibitory concentration (IC50) in assay [1] (Homo sapiens, NCI-H358, 120 h) is 204 nM; in assay [2] (Homo sapiens, A549, 120 h) it was over 10000 nM.
